According to PubChem BioAssay (NCI):
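How tested: cells in 96-well plates exposed to compound for 48 hours at five concentrations. GI50 marks 50% less growth. TGI denotes the concentration required for complete inhibition of growth.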

Assays:
Experiment in all cases: NCI-60 cell line screen, 48 h
OVCAR-5 ovarian = tested on: OVCAR-5 ovarian
MALME-3M melanoma = tested on: MALME-3M melanoma
NCI-H23 lung = tested on: NCI-H23 lung
SK-MEL-28 melanoma = tested on: SK-MEL-28 melanoma
COLO 205 colon = tested on: COLO 205 colon
SNB-75 CNS = tested on: SNB-75 CNS
SNB-19 CNS = tested on: SNB-19 CNS
HL-60(TB) leukemia = tested on: HL-60(TB) leukemia
MOLT-4 leukemia = tested on: MOLT-4 leukemia
HOP-62 NSCLC = tested on: HOP-62 NSCLC

| Compound | GI50 (OVCAR-5 ovarian) [µM] | TGI (OVCAR-5 ovarian) [µM] | GI50 (MALME-3M melanoma) [µM] | TGI (MALME-3M melanoma) [µM] | GI50 (NCI-H23 lung) [µM] | TGI (NCI-H23 lung) [µM] | GI50 (SK-MEL-28 melanoma) [µM] | TGI (SK-MEL-28 melanoma) [µM] | GI50 (COLO 205 colon) [µM] | TGI (COLO 205 colon) [µM] | GI50 (SNB-75 CNS) [µM] | TGI (SNB-75 CNS) [µM] | GI50 (SNB-19 CNS) [µM] | TGI (SNB-19 CNS) [µM] | GI50 (HL-60(TB) leukemia) [µM] | TGI (HL-60(TB) leukemia) [µM] | GI50 (MOLT-4 leukemia) [µM] | TGI (MOLT-4 leukemia) [µM] | GI50 (HOP-62 NSCLC) [µM] | TGI (HOP-62 NSCLC) [µM] |
| --- | --- | --- | --- | --- | --- | --- | --- | --- | --- | --- | --- | --- | --- | --- | --- | --- | --- | --- | --- | --- |
| N=C(N)c1ccc(-c2ccc(-c3ccccc3)s2)cc1 | 1.59 | 2.94 | 1.45 | 2.83 | 2 | 4.53 | 1.67 | 3.13 | – | – | – | – | – | – | – | – | – | – | – | – |
| O=[N+]([O-])c1ccccc1NC1c2ccccc2Oc2ccccc21 | – | – | 7.13 | > 100 | 9.67 | > 100 | 4.85 | > 100 | 3.59 | > 100 | 2.94 | 38.6 | 4.35 | > 100 | 2.8 | 7.09 | 5.03 | > 100 | 8.07 | > 100 |
| C=C1C(=O)OC2/C=C(/C)C3CC(O)C(C)(CC(OC(=O)/C(C)=C/C)C12)O3 (configuration not stated) | – | 21.6 | – | 4.48 | – | 16.9 | – | 8.35 | – | 3.08 | – | 28.2 | – | 30.8 | – | 18.3 | – | > 26.8 | – | 46.7 |
| O=C1C=CC2=[N+]([O-])C(c3ccccc3)(c3ccccc3)C(=Nc3ccccc3)C2=C1 | – | 30 | – | 4.2 | – | 5.64 | – | – | – | – | – | 8.74 | – | 31.6 | – | – | – | – | – | 29.3 |
| COc1cc(/C=C/c2cc(/C=C/c3ccc(O)c(OC)c3)nc(N)n2)ccc1O | 2.03 | 4.33 | 2.71 | 6.76 | – | – | 1.85 | 4.53 | 1.8 | 3.24 | 1.26 | 3.34 | 1.81 | 7.95 | 2.18 | 6.17 | 1.01 | 5.19 | – | – |
| CCNc1nnc(-c2nsc3ccccc23)s1 | – | > 100 | – | – | – | > 100 | – | > 100 | – | > 100 | – | 36.1 | – | 45.6 | – | > 100 | – | > 100 | – | > 100 |
| Cc1ccc([N+](=O)[O-])cc1S(=O)(=O)Nc1ccc(C2=NNC(c3ccccc3O)C2)cc1 (configuration not stated) | – | > 100 | – | 96.3 | – | 67.7 | – | > 100 | – | 65.5 | – | > 100 | – | > 100 | – | 61.8 | – | 96.3 | – | 57.7 |
| CN1CCCCC(C#N)(c2ccccc2)CC1 (configuration not stated) | – | > 100 | – | > 100 | – | > 100 | – | > 100 | – | > 100 | – | > 100 | – | > 100 | – | > 100 | – | > 100 | – | > 100 |
| C=C1C(=O)C[C@@]23CCC[C@@]12CC(OCOC)C3 (some centres not stated) | – | 8.26 | – | 8.38 | – | 11.1 | – | 8.14 | – | 14.6 | – | 6.41 | – | 28.7 | – | 4.76 | – | 9.93 | – | 25.9 |
| Nc1nc(Cl)cc(OCC2(CO)CC(OCc3ccccc3)C2)n1 (configuration not stated) | – | – | 84.5 | – | 36.5 | – | 96.9 | – | 72.5 | – | 27.9 | – | 51.6 | – | 40 | – | 22 | 95.5 | 95.7 | – |
| CC(C)CCC[C@@H](C)C1CCC2[C@@H]3CC=C4C[C@@H](C(=O)NCC[N+](C)(C)CCCS(=O)(=O)[O-])CC[C@]4(C)C3CC[C@@]21C (some centres not stated) | – | – | – | 33.3 | – | – | – | 34.5 | – | 31.9 | – | 35.1 | – | 36.4 | – | 28.3 | – | 35.1 | – | 42.9 |
| COC(=O)c1cccc(N[C@@H]2c3cc4c(cc3C(c3cc(OC)c(O)c(OC)c3)[C@H]3C(=O)OCC32)OCO4)c1 (some centres not stated) | – | > 100 | – | 27.8 | – | 4.01 | – | > 100 | – | 5.5 | – | > 21 | – | > 63.4 | – | 1.1 | – | 1.36 | – | 0.937 |
| CC(=O)Oc1ccc2c(c1)oc1c3ccc(OC(C)=O)cc3n(C)c(=O)c21 | – | > 100 | – | 31.1 | – | > 100 | – | > 100 | – | > 100 | – | 4.16 | – | > 100 | – | – | – | > 100 | – | > 100 |
| CCN(CC)CCCNc1ncc(C)c2[nH]c3ccncc3c12 | – | 26.7 | – | 27.4 | – | 34.6 | – | 27.4 | – | 22.6 | – | 27.7 | – | > 100 | – | > 31.6 | – | 18.4 | – | 79.5 |
| Cc1cc(C)c2c(c1)CC1(Cc3c(C)ccc(C)c3C1=O)C2=O (configuration not stated) | – | > 100 | – | > 100 | – | – | – | > 100 | – | > 100 | – | > 100 | – | > 100 | – | > 100 | – | > 100 | – | – |
| S=P1(N2CCCCC2)Oc2ccc3ccccc3c2-c2c(ccc3ccccc23)O1 | – | > 100 | – | > 59.6 | – | > 100 | – | > 100 | – | > 100 | – | > 92.1 | – | > 100 | – | > 100 | – | > 100 | – | > 100 |
